Source: ChEMBL document CHEMBL1149138 (J Med Chem, 2004)

Tested on: Mus musculus
Assay: Maximum weight lose in influenza A infected mice when treated by the compound at a dose of 0.1 mg/kg/day b.i.d.
Type: functional

SMILES | Max weight loss [%]
CC(=O)NC(C(=O)O)[C@@H]1CCC(=C2SCCCS2)C1 (mixture of isomers; form 1) | 12.7

Tested on: Mus musculus
Assay: Maximum weight lose in influenza A infected mice when treated by the compound at a dose of 1 mg/kg/day b.i.d.
Type: functional

SMILES | Max weight loss [%]
CC(=O)NC(C(=O)O)[C@@H]1CCC(=C2SCCCS2)C1 (mixture of isomers; form 1) | 8.7

Molecular target: Neuraminidase (Influenza A virus (A/Puerto Rico/8/1934(H1N1)), UniProt P03468)
Sequence (P03468 whole entry): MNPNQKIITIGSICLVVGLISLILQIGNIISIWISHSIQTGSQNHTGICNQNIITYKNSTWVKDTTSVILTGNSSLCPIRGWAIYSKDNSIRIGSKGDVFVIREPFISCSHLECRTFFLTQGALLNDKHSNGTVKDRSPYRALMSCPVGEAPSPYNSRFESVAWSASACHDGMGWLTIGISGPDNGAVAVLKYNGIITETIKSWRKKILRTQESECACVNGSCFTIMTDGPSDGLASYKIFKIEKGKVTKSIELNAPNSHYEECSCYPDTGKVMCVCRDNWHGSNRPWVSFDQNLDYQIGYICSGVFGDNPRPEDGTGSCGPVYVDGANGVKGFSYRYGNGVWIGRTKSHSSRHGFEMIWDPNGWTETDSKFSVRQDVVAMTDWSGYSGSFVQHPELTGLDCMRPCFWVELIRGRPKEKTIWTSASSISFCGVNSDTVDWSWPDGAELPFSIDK

SMILES | IC50 [µM]
CCCN(CCC)C(=O)C(NC(C)=O)[C@H]1C[C@@](O)(C(=O)O)C[C@@H]1N=C(N)N (stereo partly specified) | 0.47
CCN(CC)C(=O)C(NC(C)=O)[C@H]1C[C@@H](C(=O)O)C[C@@H]1N=C(N)N (stereo partly specified) | 0.007
CCN(CC)C(=O)C(NC(C)=O)[C@H]1C[C@@](O)(C(=O)O)C[C@@H]1N=C(N)N (stereo partly specified) | 1.6
CCCN(CCC)C(=O)C(NC(C)=O)[C@H]1C[C@](O)(C(=O)O)C[C@@H]1N=C(N)N (mixture of isomers) | 2300
CC(=O)NC(C(=O)O)[C@@H]1CCC(=C2SCCCS2)C1 (mixture of isomers; form 1) | 0.007
CC(=O)NC(C(=O)O)[C@@H]1CCC(=C2SCCCS2)C1 (mixture of isomers; form 2) | 0.06
CC(=O)NC(C(=O)O)[C@@H]1CCC(=C2SCCCS2)C1 (single isomer, unassigned) | 0.043
CC(=O)NC(C(=O)O)[C@@H]1CCC(=C2SCCCS2)C1 (stereo in doubt) | 25
CCCN(CCC)C(=O)C(NC(C)=O)[C@H]1C[C@](O)(C(=O)O)C[C@@H]1N=C(N)N (stereo in doubt) | 4.9

Tested on: Mus musculus
Assay: Maximum weight lose in influenza A infected mice when treated by the compound at a dose of 10 mg/kg/day b.i.d.
Type: functional

SMILES | Max weight loss [%]
CC(=O)NC(C(=O)O)[C@@H]1CCC(=C2SCCCS2)C1 (mixture of isomers; form 1) | 3.1

Tested on: Mus musculus
Assay: Maximum weight lose in influenza A infected mice when treated by the compound at a dose of 0 mg/kg/day b.i.d.
Type: functional

SMILES | Max weight loss [%]
CC(=O)NC(C(=O)O)[C@@H]1CCC(=C2SCCCS2)C1 (mixture of isomers; form 1) | 27.5

Molecular target: Neuraminidase (Influenza B virus (strain B/Lee/1940), UniProt P03474)
Parameters: species or system Influenza B virus (strain: B/Lee/40)

Sequence of Neuraminidase (P03474 whole entry): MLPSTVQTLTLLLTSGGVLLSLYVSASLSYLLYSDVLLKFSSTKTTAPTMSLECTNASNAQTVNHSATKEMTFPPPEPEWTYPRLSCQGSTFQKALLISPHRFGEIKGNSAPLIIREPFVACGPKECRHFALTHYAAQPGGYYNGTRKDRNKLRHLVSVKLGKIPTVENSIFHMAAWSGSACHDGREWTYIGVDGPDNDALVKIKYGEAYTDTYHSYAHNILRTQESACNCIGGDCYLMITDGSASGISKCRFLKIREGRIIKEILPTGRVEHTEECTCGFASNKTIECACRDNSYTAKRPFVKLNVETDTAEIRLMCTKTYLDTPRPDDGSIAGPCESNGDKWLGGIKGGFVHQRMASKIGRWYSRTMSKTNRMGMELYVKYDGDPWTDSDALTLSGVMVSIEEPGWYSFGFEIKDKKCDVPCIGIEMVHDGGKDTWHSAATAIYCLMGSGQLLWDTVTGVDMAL

SMILES | IC50 [µM]
CC(=O)NC(C(=O)N1CC(C)CC(C)C1)[C@H]1CC(C(=O)O)C[C@@H]1N=C(N)N (stereo partly specified) | > 100
C=CCNC(=O)C(NC(C)=O)[C@H]1CC(C(=O)O)C[C@@H]1N=C(N)N (stereo partly specified) | 4.3
CCCN(CCC)C(=O)C(NC(C)=O)[C@H]1CC(C(=O)O)C[C@@H]1N=C(N)N (stereo partly specified) | 9.2
CCCN(CC1CC1)C(=O)C(NC(C)=O)[C@H]1CC(C(=O)O)C[C@@H]1N=C(N)N (stereo partly specified) | 24
CCCCNC(=O)C(NC(C)=O)[C@H]1CC(C(=O)O)C[C@@H]1N=C(N)N (stereo partly specified) | 46.8
CC(=O)NC(C(=O)N1CCOCC1)[C@H]1CC(C(=O)O)C[C@@H]1N=C(N)N (stereo partly specified) | 7.8
CC(=O)NC(C(=O)N1CCCCCC1)[C@H]1CC(C(=O)O)C[C@@H]1N=C(N)N (stereo partly specified) | 25.3
CCC1CCCCN1C(=O)C(NC(C)=O)[C@H]1CC(C(=O)O)C[C@@H]1N=C(N)N (stereo partly specified) | 3.1
CC(=O)NC(C(=O)N1CCC(C)CC1)[C@H]1CC(C(=O)O)C[C@@H]1N=C(N)N (stereo partly specified) | 42.5
CCN(CCO)C(=O)C(NC(C)=O)[C@H]1CC(C(=O)O)C[C@@H]1N=C(N)N (stereo partly specified) | > 30
CC(=O)NC(C(=O)N1CCC1)[C@H]1CC(C(=O)O)C[C@@H]1N=C(N)N (stereo partly specified) | 8.4
CC(=O)NC(C(=O)N1CCCCC1C)[C@H]1CC(C(=O)O)C[C@@H]1N=C(N)N (stereo partly specified) | 10.5
CCCCCCN(C)C(=O)C(NC(C)=O)[C@H]1CC(C(=O)O)C[C@@H]1N=C(N)N (stereo partly specified) | > 30
CCN(CC)C(=O)C(NC(C)=O)[C@H]1C[C@@H](C(=O)O)C[C@@H]1N=C(N)N (stereo partly specified) | 1.5
CCCC1CCCCN1C(=O)C(NC(C)=O)[C@H]1CC(C(=O)O)C[C@@H]1N=C(N)N (stereo partly specified) | 14.5
CCN(CC)C(=O)C(NC(C)=O)[C@H]1CC(C(=O)O)C[C@@H]1N=C(N)N (stereo partly specified) | 3
CCCCN(C)C(=O)C(NC(C)=O)[C@H]1CC(C(=O)O)C[C@@H]1N=C(N)N (stereo partly specified) | 18.4
COCC(C)NC(=O)C(NC(C)=O)[C@H]1CC(C(=O)O)C[C@@H]1N=C(N)N (stereo partly specified) | 25.1
CC(=O)NC(C(=O)N1CCSCC1)[C@H]1CC(C(=O)O)C[C@@H]1N=C(N)N (stereo partly specified) | 29.1
CC(=O)NC(C(=O)NC(C)CCc1ccccc1)[C@H]1CC(C(=O)O)C[C@@H]1N=C(N)N (stereo partly specified) | 12.5
CCC(C)NC(=O)C(NC(C)=O)[C@H]1CC(C(=O)O)C[C@@H]1N=C(N)N (stereo partly specified) | 16.5
CC(=O)NC(C(=O)N1CCCC1)[C@H]1CC(C(=O)O)C[C@@H]1N=C(N)N (stereo partly specified) | 24

SMILES | IC50 [µM]
CCCC(C)NC(=O)C(NC(C)=O)[C@H]1CC(C(=O)O)C[C@@H]1N=C(N)N (stereo partly specified) | 12.2
CCCCC(C)NC(=O)C(NC(C)=O)[C@H]1CC(C(=O)O)C[C@@H]1N=C(N)N (stereo partly specified) | 37
CCN(Cc1ccccc1)C(=O)C(NC(C)=O)[C@H]1CC(C(=O)O)C[C@@H]1N=C(N)N (stereo partly specified) | > 30
CC(=O)NC(C(=O)N(C)CCc1ccccc1)[C@H]1CC(C(=O)O)C[C@@H]1N=C(N)N (stereo partly specified) | 26.7
CCC(CC)NC(=O)C(NC(C)=O)[C@H]1CC(C(=O)O)C[C@@H]1N=C(N)N (stereo partly specified) | 3
CCC(COC)NC(=O)C(NC(C)=O)[C@H]1CC(C(=O)O)C[C@@H]1N=C(N)N (stereo partly specified) | 20
CC(=O)NC(C(=O)NC(C)CC(C)C)[C@H]1CC(C(=O)O)C[C@@H]1N=C(N)N (stereo partly specified) | 11.4
CCCN(CC)C(=O)C(NC(C)=O)[C@H]1CC(C(=O)O)C[C@@H]1N=C(N)N (stereo partly specified) | 7
CC(=O)NC(C(=O)NCCc1ccccc1)[C@H]1CC(C(=O)O)C[C@@H]1N=C(N)N (stereo partly specified) | 70.5
CC(=O)NC(C(=O)N1CCCCC1)[C@H]1CC(C(=O)O)C[C@@H]1N=C(N)N (stereo partly specified) | 6.9
CC(=O)NC(C(=O)NC(C)C)[C@H]1CC(C(=O)O)C[C@@H]1N=C(N)N (stereo partly specified) | 4.6
CC(=O)NC(C(=O)N(C)C(C)C)[C@H]1CC(C(=O)O)C[C@@H]1N=C(N)N (stereo partly specified) | 6.8
CC(=O)NC(C(=O)N1CCCC(C)C1)[C@H]1CC(C(=O)O)C[C@@H]1N=C(N)N (stereo partly specified) | > 10
CCCCC(CC)NC(=O)C(NC(C)=O)[C@H]1CC(C(=O)O)C[C@@H]1N=C(N)N (stereo partly specified) | 16
CCCN(C)C(=O)C(NC(C)=O)[C@H]1CC(C(=O)O)C[C@@H]1N=C(N)N (stereo partly specified) | 6.2
CCNC(=O)C(NC(C)=O)[C@H]1CC(C(=O)O)C[C@@H]1N=C(N)N (stereo partly specified) | 3.1
C=CCN(C)C(=O)C(NC(C)=O)[C@H]1CC(C(=O)O)C[C@@H]1N=C(N)N (stereo partly specified) | 11.7
CC(=O)NC(C(=O)O)[C@@H]1CCC(=C2SCCCS2)C1 (mixture of isomers; form 1) | 3
CC(=O)NC(C(=O)O)[C@@H]1CCC(=C2SCCCS2)C1 (mixture of isomers; form 2) | 3
CC(=O)NC(C(=O)O)[C@@H]1CCC(=C2SCCCS2)C1 (single isomer, unassigned) | 8.6
CCCN(CCC)C(=O)C(NC(C)=O)[C@H]1C[C@](O)(C(=O)O)C[C@@H]1N=C(N)N (stereo in doubt) | 33
